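These data come from cells grown in 96-well plates and exposed to compound for 48 hours at five concentrations. GI50: concentration for 50% inhibition of growth.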 Activity calls are given as the source filed them. Cut-off read from the data, not from the text of the source: active = GI50 up to about 1.1 µM and inactive = higher.
Key:
Assay in all cases: DTP human tumour cell line panel, 48 h
UO-31 = system: UO-31
OVCAR-4 = system: OVCAR-4
EKVX = system: EKVX
NCI/ADR-RES = system: NCI/ADR-RES
LOX IMVI = system: LOX IMVI
A549 = system: A549
COLO 205 = system: COLO 205
SW-620 = system: SW-620
MCF7 = system: MCF7
UACC-257 = system: UACC-257
HCT-116 = system: HCT-116
NCI-H522 = system: NCI-H522
A498 = system: A498
NCI-H23 = system: NCI-H23
K562 = system: K562
SN12C = system: SN12C
MDA-MB-231 = system: MDA-MB-231
HOP-92 = system: HOP-92
Hs-578T = system: Hs-578T

| Structure (SMILES) | GI50 (UO-31) | GI50 (OVCAR-4) | GI50 (EKVX) | GI50 (NCI/ADR-RES) | GI50 (LOX IMVI) | GI50 (A549) | GI50 (COLO 205) | GI50 (SW-620) | GI50 (MCF7) | GI50 (UACC-257) | GI50 (HCT-116) | GI50 (NCI-H522) | GI50 (A498) | GI50 (NCI-H23) | GI50 (K562) | GI50 (SN12C) | GI50 (MDA-MB-231) | GI50 (HOP-92) | GI50 (Hs-578T) |
| --- | --- | --- | --- | --- | --- | --- | --- | --- | --- | --- | --- | --- | --- | --- | --- | --- | --- | --- | --- |
| O=C1/C(=C\c2ccc(Cl)cc2)N=C(c2ccccc2)N1n1c(=O)cn[nH]c1=S | 60.4 µM (inactive) | 23.6 µM (inactive) | > 100 µM (inactive) | 45 µM (inactive) | 27.8 µM (inactive) | > 100 µM (inactive) | > 100 µM (inactive) | 18.1 µM (inactive) | 18.4 µM (inactive) | 29.5 µM (inactive) | 68.2 µM (inactive) | 15.8 µM (inactive) | > 100 µM (inactive) | 20.3 µM (inactive) | 16.9 µM (inactive) |  |  |  |  |
| Nc1ccc2c3c1cccc3c(=O)n1c3ccc(Cc4ccc5c(c4)nc4c6ccc(N)c7cccc(c(=O)n54)c76)cc3nc21 | > 100 µM (inactive) | > 100 µM (inactive) | > 100 µM (inactive) | > 100 µM (inactive) | > 100 µM (inactive) | > 100 µM (inactive) | > 100 µM (inactive) | > 100 µM (inactive) | > 100 µM (inactive) | > 100 µM (inactive) | > 100 µM (inactive) | > 100 µM (inactive) | > 100 µM (inactive) | > 100 µM (inactive) | > 100 µM (inactive) | > 100 µM (inactive) | > 100 µM (inactive) | > 100 µM (inactive) |  |
| O=c1c2cc(S(=O)(=O)O)ccc2nc(COc2ccc(Oc3ccc(Cl)cc3Cl)cc2)n1-c1ccc(Cl)cc1Oc1c(Cl)cccc1Cl | 18.3 µM (inactive) | 29.4 µM (inactive) | 15.6 µM (inactive) | 23.9 µM (inactive) | 17.5 µM (inactive) | 23.7 µM (inactive) | 17.5 µM (inactive) | 23.3 µM (inactive) | 21.2 µM (inactive) | 30.5 µM (inactive) | 24.8 µM (inactive) | 20.7 µM (inactive) | 25.3 µM (inactive) | 24.2 µM (inactive) | 43.2 µM (inactive) | 30.1 µM (inactive) |  | 15.7 µM (inactive) | 26.1 µM (inactive) |
| Cn1nc(-c2ccccc2)c(C(=O)/C=C/c2ccc(Cl)cc2)c(N2CCOCC2)c1=O | 9.71 µM (inactive) |  | 8.49 µM (inactive) |  | 3.44 µM (inactive) | 3.89 µM (inactive) | 1.99 µM (inactive) | 4.12 µM (inactive) |  |  | 1.85 µM (inactive) | 2.43 µM (inactive) | 4.22 µM (inactive) | 2.74 µM (inactive) | 2.79 µM (inactive) | 5.7 µM (inactive) |  | 2.11 µM (inactive) |  |
| CC(=O)NC(CC(C)C)C(=O)NC(CC(C)C)C(=O)NC(C=O)CCCNC(=N)N (stereo not drawn) | > 100 µM (inactive) | > 100 µM (inactive) | > 100 µM (inactive) | > 100 µM (inactive) | > 100 µM (inactive) | > 100 µM (inactive) | > 100 µM (inactive) | > 100 µM (inactive) | > 100 µM (inactive) | > 100 µM (inactive) | > 100 µM (inactive) | > 100 µM (inactive) | > 100 µM (inactive) | > 100 µM (inactive) | > 100 µM (inactive) | > 100 µM (inactive) | > 100 µM (inactive) | > 100 µM (inactive) |  |
| N=C(N)/N=C(\N)Nc1cnccn1 | > 100 µM (inactive) | > 100 µM (inactive) | > 100 µM (inactive) | > 100 µM (inactive) | > 100 µM (inactive) | > 100 µM (inactive) | > 100 µM (inactive) | > 100 µM (inactive) | > 100 µM (inactive) | > 100 µM (inactive) | > 100 µM (inactive) | > 100 µM (inactive) | > 100 µM (inactive) | > 100 µM (inactive) | > 100 µM (inactive) | > 100 µM (inactive) | > 100 µM (inactive) | > 100 µM (inactive) |  |
| Nc1ccc2c(c1)C(=O)N1CCC[C@H]1C(=O)N2 | > 100 µM (inactive) | > 100 µM (inactive) | > 100 µM (inactive) | > 100 µM (inactive) | > 100 µM (inactive) | > 100 µM (inactive) | > 100 µM (inactive) | > 100 µM (inactive) | > 100 µM (inactive) | > 100 µM (inactive) | > 100 µM (inactive) | > 100 µM (inactive) | > 100 µM (inactive) | > 100 µM (inactive) | > 100 µM (inactive) | > 100 µM (inactive) | > 100 µM (inactive) | > 100 µM (inactive) |  |
| COC(=O)c1cc(NC(=O)c2cc(NC(=O)Cc3c[nH]c4ccccc34)cn2C)cn1C | 23.5 µM (inactive) | 43.1 µM (inactive) | 22.2 µM (inactive) | > 100 µM (inactive) | 32 µM (inactive) | 29.4 µM (inactive) | 24.2 µM (inactive) | 57.1 µM (inactive) | 36.5 µM (inactive) |  | 27.2 µM (inactive) |  | 24 µM (inactive) | 24.3 µM (inactive) | 44.4 µM (inactive) | 33.4 µM (inactive) | 25.9 µM (inactive) |  |  |
| COc1ccc(N2C(=O)[C@@H](N=[N+]=[N-])[C@@H]2[C@H]2COC(C)(C)O2)cc1 | > 100 µM (inactive) | > 100 µM (inactive) | > 100 µM (inactive) |  |  | > 100 µM (inactive) | > 100 µM (inactive) | > 100 µM (inactive) |  | > 100 µM (inactive) | > 100 µM (inactive) | > 100 µM (inactive) |  | > 100 µM (inactive) | > 100 µM (inactive) | > 100 µM (inactive) |  | > 100 µM (inactive) |  |
| CN(C)CCNC(=O)c1cccc2nc3cc(Cl)ccc3nc12 | 4.26 µM (inactive) | 2.42 µM (inactive) | 4.25 µM (inactive) |  | 1.26 µM (inactive) | 2.56 µM (inactive) | 1.86 µM (inactive) | 1.06 µM (active) |  | 2.82 µM (inactive) | 0.764 µM (active) | 2.92 µM (inactive) | 1.65 µM (inactive) | 2 µM (inactive) | 1.18 µM (inactive) | 2.07 µM (inactive) |  | 5.77 µM (inactive) |  |
| N#C/N=C(/N)c1sc2nc3c(c(-c4ccc(Br)cc4)c2c1N)CCCC3 | 19.9 µM (inactive) | 3.21 µM (inactive) |  | 21.4 µM (inactive) | 7.93 µM (inactive) | 25.4 µM (inactive) | 14.4 µM (inactive) | 43.7 µM (inactive) | 18.5 µM (inactive) | 28.5 µM (inactive) | 9.02 µM (inactive) |  | 16.1 µM (inactive) | 26.1 µM (inactive) | 9.23 µM (inactive) | 21.5 µM (inactive) | 20.6 µM (inactive) | 21 µM (inactive) |  |
| Nc1ccn(CCOC(=O)c2ccccc2)c(=O)n1 | > 100 µM (inactive) | > 100 µM (inactive) | > 100 µM (inactive) |  | > 100 µM (inactive) | > 100 µM (inactive) | > 100 µM (inactive) | > 100 µM (inactive) |  | > 100 µM (inactive) | > 100 µM (inactive) | > 100 µM (inactive) | > 100 µM (inactive) |  | > 100 µM (inactive) | > 100 µM (inactive) |  | > 100 µM (inactive) |  |
| SC[C@@H]1COC[C@H](CS)S1 | > 100 µM (inactive) | > 100 µM (inactive) | > 100 µM (inactive) |  | > 100 µM (inactive) | > 100 µM (inactive) | > 100 µM (inactive) | > 100 µM (inactive) | > 100 µM (inactive) | > 100 µM (inactive) | > 100 µM (inactive) | > 100 µM (inactive) |  | > 100 µM (inactive) | > 100 µM (inactive) | > 100 µM (inactive) | > 100 µM (inactive) |  |  |
| OCCc1cnco1 |  | > 100 µM (inactive) | > 100 µM (inactive) |  | > 100 µM (inactive) | > 100 µM (inactive) | > 100 µM (inactive) | > 100 µM (inactive) |  |  | > 100 µM (inactive) | > 100 µM (inactive) |  | > 100 µM (inactive) | > 100 µM (inactive) | > 100 µM (inactive) |  |  |  |
| O=C(O)CNc1c2ccccc2[n+]([O-])c2ccccc12 | 43.4 µM (inactive) | 94.2 µM (inactive) | > 100 µM (inactive) |  | 78.7 µM (inactive) | > 100 µM (inactive) | 72.3 µM (inactive) | > 100 µM (inactive) |  | > 100 µM (inactive) | 44.6 µM (inactive) | 50.1 µM (inactive) | > 100 µM (inactive) | 60.7 µM (inactive) | 13.9 µM (inactive) | > 100 µM (inactive) |  |  |  |
| CC1(C)C2CCC13CS(=O)(=O)N1O[C@]13C(=O)O2 (stereo partly drawn) | > 100 µM (inactive) | > 100 µM (inactive) | > 100 µM (inactive) |  | > 100 µM (inactive) | > 100 µM (inactive) | > 100 µM (inactive) | > 100 µM (inactive) |  | > 100 µM (inactive) | > 100 µM (inactive) | > 100 µM (inactive) | > 100 µM (inactive) | > 100 µM (inactive) | > 100 µM (inactive) | > 100 µM (inactive) |  | > 100 µM (inactive) |  |
| [N-]=[N+]=NC(CBr)c1cn([C@H]2C[C@H](O)[C@@H](CO)O2)c(=O)[nH]c1=O (stereo partly drawn) | > 100 µM (inactive) |  | > 100 µM (inactive) |  | > 100 µM (inactive) | > 100 µM (inactive) | > 100 µM (inactive) | > 100 µM (inactive) |  |  | > 100 µM (inactive) | > 100 µM (inactive) |  | > 100 µM (inactive) | > 100 µM (inactive) | > 100 µM (inactive) |  | > 100 µM (inactive) |  |

From ChEMBL document CHEMBL1201862, “PubChem BioAssay data set” (2004)
